According to patent US10426815B2, “Prevention and treatment of itch with an MRGPR antagonist” (THE GENERAL HOSPITAL CORPORATION, priority 2015, dated 2019):
Ends that are not written are not given here.

How the values were obtained:
MrgA3 (mouse MrgprA3) = biological target: T1, MrgA3 (mouse MrgprA3) (Mus musculus, UniProt Q91WW3); assay: Calcium imaging of cells transfected with the GPCR (Table 1); format: cell-based; conditions: chloroquine 100 μM (FIG. 7c)
T1 construct: expressed in transfected cells; host or cells: HeLa cells, pcDNA3.1(-)
T1 sequence (Q91WW3 1-302): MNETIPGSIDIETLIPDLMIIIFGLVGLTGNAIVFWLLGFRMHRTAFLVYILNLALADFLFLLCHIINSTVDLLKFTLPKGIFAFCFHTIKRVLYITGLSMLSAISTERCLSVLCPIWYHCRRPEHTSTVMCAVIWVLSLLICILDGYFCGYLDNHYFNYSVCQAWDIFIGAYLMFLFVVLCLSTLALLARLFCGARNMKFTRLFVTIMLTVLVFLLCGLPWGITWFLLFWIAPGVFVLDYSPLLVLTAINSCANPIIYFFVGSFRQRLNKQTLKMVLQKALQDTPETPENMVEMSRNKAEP
Method: (§1) Human NK1 cDNA was obtained from LIFE Technologies, PCR cloned with Xho I-Hind III ends and cloned into pcDNA3.1(−). Mouse NK2 and NK3 expression-ready vectors were obtained from […] (Piscataway, N.J.). All other Mrgprs (human MRGPRX1, human MRGPRX2, human MRGPRX3, human MRGPRX4, mouse MrgprA2a, mouse MrgprA2b, mouse MrgprA3, mouse MrgprA4, mouse MrgprA9, mouse MrgprA10, mouse MrgprB4 and mouse MrgprB5) were cloned by PCR from genomic DNAs and inserted into pcDNA3.1 (−).
(§2) 10 μg of expression vector (human MRGPRX2, mouse MrgprA1 or NK1) and 10 μl of LIPOFECTAMINE 2000 transfection reagent were diluted into 0.5 ml of DMEM and separately left at room temperature (RT) for 5 min. They were then mixed and incubated at RT for 20 minutes prior to being added to HeLa cells. HeLa cells were grown to confluence, trypsinized and 1×10^6 cells were pelleted in a 15 ml tube by centrifugation at 1000 rpm for 5 minutes. The DMEM-LIPOFECTAMINE 2000-DNA mixture (1 ml) was then added to the cell pellet, suspended and incubated at RT for 5 minutes. 2 ml of complete DMEM with 10% FBS without antibiotics were added to the tube, mixed by inverting the tube, plated into a 96-well glass bottom plate at 50,000 cells/well, and placed in a 37° C. CO2 incubator for 3 hours. HeLa cells transfected with salmon sperm DNA were plated as a control. The medium was changed after 3 hours and left in the incubator. 24 hours after transfection, the medium in the wells was removed and 100 μl of complete DMEM containing 2 μM of FURA-2 were added to each well and left at room temperature in the dark for 1 hr.
(§3) Calcium imaging was performed immediately after loading cells with Fura-2, using a ZEISS Axiovert 200M microscope platform equipped with a flipping filter wheel for ratiometric imaging. Axiovision software, version 4.6 was used for calcium image analysis of the cells excited at 340 nm and 380 nm. Agonists were added at 15 seconds after the start of the excitation procedure. Antagonists were added five minutes before imaging with the agonists. Images were taken every 5 seconds, including at zero time, during a 90 second period or longer if required. The software later analyzed all images taken during each excitation period. Ratiometric changes were measured in 10-20 cells in each individual experiment. An average of the fluorescence of the cells in each image was calculated and plotted against time in seconds.

MrgX1 (human MRGPRX1) = biological target: T2, MrgX1 (human MRGPRX1) (Homo sapiens, UniProt Q96LB2); assay: as above; format: cell-based; conditions: SP 10 μM (FIG. 9); chloroquine 100 μM (FIG. 7c)
T2 construct: expressed in transfected cells; host or cells: HeLa cells, pcDNA3.1(-)
T2 sequence (Q96LB2 whole entry): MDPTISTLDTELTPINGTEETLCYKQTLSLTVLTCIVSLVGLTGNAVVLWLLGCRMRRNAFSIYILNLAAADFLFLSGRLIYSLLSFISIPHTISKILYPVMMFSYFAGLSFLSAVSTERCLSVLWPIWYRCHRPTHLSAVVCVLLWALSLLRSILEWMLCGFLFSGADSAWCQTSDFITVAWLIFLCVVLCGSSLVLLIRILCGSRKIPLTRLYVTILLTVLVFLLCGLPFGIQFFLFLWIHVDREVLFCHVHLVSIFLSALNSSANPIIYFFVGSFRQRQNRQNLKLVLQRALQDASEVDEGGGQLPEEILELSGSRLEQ
Method: as §1, §2, §3

[1] = tested on: mice (itch, scratching bouts); assay: Mouse cheek model, scratching bouts; format: in vivo; conditions: intradermal injection into the cheek, 10 μl
Method: The mouse cheek model was used to evaluate scratching behavior in Mrgpr cluster Δ−/− and NK1−/− mice. Mice used for behavioral studies were 2 to 3 months old, 20-30 g. Mice were habituated for 30 minutes/day for 3 days prior and for 15 minutes on the day of the study. 10 μl of each compound were delivered by a 31G needle to the cheek. The mice were not shaved prior to injections to avoid irritation. All experiments were performed at consistent times during the day (9:00 am to 2:00 pm) and under the same conditions and in groups of at least 7 mice. The mice were videotaped in a soundproof environment minimize distraction. Recordings were scored for the number of scratching bouts that occur over 1 minute intervals during 25 minute observation periods and the investigator was not aware of the group allocation during scoring the study and behavioral analysis. A scratching bout was initiated by lifting of the hind paw to the area of injection, and ended by returning of the hind paw to the floor or to the mouth. […]
For behavioral studies, average numbers of scratching bouts were compared across groups using one-way ANOVA. Pair-wise comparisons were performed using student t test after correcting p values for multiple comparisons using the Bonferroni procedure. For DRG studies and mast cell degranulation studies, unpaired student t-test was used. Differences were considered to be statistically significant for P<0.05. Data analysis was performed using PRISM 6.

Compound	activation of mouse MrgprA3 by the substance (in words) (MrgA3 (mouse MrgprA3))	activation of human MRGPRX1 by the substance (in words) (MrgX1 (human MRGPRX1))	provocation of itch (scratching bouts) by the injected substance, WT mice [1]
CCN(CC)CCCC(C)Nc1ccnc2cc(Cl)ccc12 (stereo not shown) [Chloroquine, chloroquine]	activates	activates	–
LL-37: antimicrobial peptide that activates MRGPRX2	–	–	don't cause itch
PAMP: PAMP peptide of the behavioral studies, length not stated (ARLDVASEFRKKWNKWALSR; ends and bridges not checked; UniProt P35318 22-41, looked up)	–	–	don't cause itch
